Data on 7 compounds can be found in patent US20050009924A1 (priority 2003, published 2005).

Where only a bound is given, the exact number is not on record here.

In data set [1] the test system is transcriptional activity of hTERT. As to the kind of experiment: SEAP reporter assay of hTERT expression, PhTERT-SEAP (hTERT-BJ1). The data set is classed as cell-based, human. The settings on record: Homo sapiens, hTERT-BJ1, read-out: Relative SEAP activity (%). Summed up:
(§1)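 SEAP activity, read as rate of 405 nm absorbance rise with 12 mM p-nitrophenyl phosphate in diethanolamine/MgCl2/homoarginine buffer after 65 °C, 10 min heat inactivation, reports hTERT or CMV promoter activity. G418-selected stable H1299 or hTERT-BJ1 reporter lines were exposed to drug for 24 h.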
(In general: Reporter assays use an easily measured gene product as a stand-in for the process of interest.)

The nature of data set [2]: MTT relative viability, PhTERT-SEAP (H1299) cells. The settings on record: human.
In data set [3] the test system is transcriptional activity of hTERT. As to the kind of experiment: SEAP reporter assay of hTERT expression, PhTERT-SEAP (H1299). The settings on record: Homo sapiens, NCI-H1299, H1299, read-out: Relative SEAP activity (%). The data set is classed as cell-based, human. Summed up:
as §1

The next data set relates to rat glioma C6 cells. As to the kind of experiment: Cytotoxicity assay (XTT colorimetric), C6 cells. The settings on record: Rattus norvegicus, C6; 48 h of drug exposure. It counts as cell-based. For orientation: Tetrazolium assays rely on reduction of a dye to a coloured formazan, in cell work by metabolically active cells.
The next data set deals with human hepatoma G2 cells. As to the kind of experiment: Cytotoxicity assay (XTT colorimetric), Hep G2. The data set is classed as cell-based. The settings on record: Homo sapiens, HepG2; 48 h of drug exposure.
Data set [4] in a line: MTT relative viability, PhTERT-SEAP (hTERT-BJ1) cells. The settings on record: human.
Data set [5] concerns iron-induced lipid peroxidation in rat brain homogenates. Description: Iron-induced lipid peroxidation in rat brain homogenates. The settings on record: for Inhibition of LP(10 mM): mean percent inhibition (Table 3).
The mark [6] stands for this setting: hTERT-BJ1 cells, stable PhTERT-SEAP reporter clone.

For orientation: viability means a read-out of living cells in per cent, often relative to untreated cells. For orientation: IC50 means the concentration at which inhibition is half-maximal. Read a high IC50 as weaker potency. Usually melting point stands for the temperature of the solid-liquid transition. The compound `O=C(Oc1cccc2c1C(=O)c1cccc(OC(=O)c3ccccc3)c1C2=O)c1ccccc1` [IIIe, 1,5-Bis(benzoyloxy)-anthraquinone] showed a melting point of 336 to 338 °C. Besides, the activity at 2.2 µM in data set [1] (2.2 μM) was determined as 137 ± 10%. In data set [1] (22 μM), the activity at 22 µM came out at 122 ± 9.6%. In addition, the activity at 220 µM in data set [1] (220 μM) was determined as 84 ± 21.7%. Besides, in data set [2], the viability at 48 h, 2.2 µM was found to be 99 ± 7.3%; the viability at 48 h, 22 µM worked out at 60 ± 11.9%; the viability at 48 h, 220 µM turned out to be 33 ± 4.7%. For the same compound, the activity at 2.2 µM in data set [3] (2.2 μM) worked out at 88 ± 10%. The activity at 22 µM in data set [3] (22 μM) is 94 ± 8%. Also, the activity at 220 µM in data set [3] (220 μM) came out at 86 ± 4.7%. The compound also had an IC50 with rat glioma C6 cells of 38.7 ± 3.6 µM. In the data set on human hepatoma G2 cells, this compound showed an IC50 of 47.7 ± 5.5 µM. For the same compound, in data set [4], the viability at 48 h, 2.2 µM worked out at 103 ± 6.5%; the viability at 48 h, 22 µM is 87 ± 9.8%; the viability at 48 h, 220 µM is 51 ± 4.6%. Further, in data set [5] (10 mM), the “Inhibition of LP(10 mM)” value was −50 ± 1.9^ %.
`Cc1ccccc1C(=O)Oc1cccc2c1C(=O)c1cccc(OC(=O)c3ccccc3C)c1C2=O` [IIIj, 1,5-Bis(2-toluoyloxy)-anthraquinone] yielded a melting point of 262 to 263 °C. For the same compound, in data set [1], the activity at 2.1 µM is 129 ± 13%, the activity at 21 µM was found to be 120 ± 24% and the activity at 210 µM was 94 ± 27.1%. Besides, in data set [2], the viability at 48 h, 2.1 µM came to 72 ± 4.9%; the viability at 48 h, 21 µM is 36 ± 9.7%; the viability at 48 h, 210 µM came to 45 ± 8%. In data set [3], the activity at 2.1 µM is 97 ± 4.4%, the activity at 21 µM was 91 ± 7.4% and the activity at 210 µM stood at 90 ± 4.2%. Besides, 25.1 ± 2.8 µM corresponded to half-maximal inhibition in the data set on rat glioma C6 cells (IC50). The same compound displayed a concentration for half-maximal inhibition (IC50) in the data set with human hepatoma G2 cells of 21.6 ± 2.2 µM. In addition, in data set [4], the viability at 48 h, 2.1 µM was 118 ± 11.6%; the viability at 48 h, 21 µM was determined as 82 ± 8.5%; the viability at 48 h, 210 µM was 39 ± 13%. In addition, the “Inhibition of LP(10 mM)” value in data set [5] (10 mM) is reported as 23 ± 1.1%.
Compound `Cc1cccc(C(=O)Oc2cccc3c2C(=O)c2cccc(OC(=O)c4cccc(C)c4)c2C3=O)c1` [IIIk, 1,5-Bis(3-toluoyloxy)-anthraquinone] returned a melting point of 269 to 270 °C. In data set [1], the activity at 2.1 µM is 141 ± 10.5%, the activity at 21 µM stood at 124 ± 15.6% and the activity at 210 µM was determined as 86 ± 17.2%. In addition, in data set [2], the viability at 48 h, 2.1 µM stood at 26 ± 3.7%; the viability at 48 h, 21 µM was 28 ± 5%; the viability at 48 h, 210 µM is 29 ± 3.3%. In data set [3], the activity at 2.1 µM stood at 104 ± 5.4%, the activity at 21 µM worked out at 116 ± 12.8% and the activity at 210 µM stood at 110 ± 16.4%. Further, the IC50 with rat glioma C6 cells is 30.1 ± 3.3 µM. The compound further displayed an IC50 in the data set with human hepatoma G2 cells of 18.1 ± 1.5 µM. In data set [4], the viability at 48 h, 2.1 µM was 98 ± 9.4%; the viability at 48 h, 21 µM was determined as 54 ± 7.5%; the viability at 48 h, 210 µM was 47 ± 4.8%. Moreover, the “Inhibition of LP(10 mM)” value in data set [5] (10 mM) was −32 ± 1.5^ %.
For `Cc1ccc(C(=O)Oc2cccc3c2C(=O)c2cccc(OC(=O)c4ccc(C)cc4)c2C3=O)cc1` [IIIl, 1,5-Bis(4-toluoyloxy)-anthraquinone], the melting point lay in the range of 331 to 332 °C. Further, in data set [1], the activity at 2.1 µM amounted to 130 ± 8.8%, the activity at 21 µM was determined as 126 ± 13.3% and the activity at 210 µM was 99 ± 15.8%. Besides, in data set [2], the viability at 48 h, 2.1 µM was determined as 61 ± 5.8%; the viability at 48 h, 21 µM was 33 ± 2.8%; the viability at 48 h, 210 µM worked out at 32 ± 5.7%. In data set [3], the activity at 2.1 µM turned out to be 98 ± 1.1%, the activity at 21 µM is 95 ± 4.3% and the activity at 210 µM amounted to 95 ± 8.9%. In the data set with rat glioma C6 cells, half-maximal inhibition (IC50) was put at 37.6 ± 4.1 µM. In the data set on human hepatoma G2 cells, this compound showed an IC50 of 9.3 ± 0.9 µM. In data set [4], the viability at 48 h, 2.1 µM came out at 102 ± 13.9%; the viability at 48 h, 21 µM was 98 ± 6.3%; the viability at 48 h, 210 µM is 56 ± 6.2%. Besides, the “Inhibition of LP(10 mM)” value in data set [5] (10 mM) came to 33 ± 1.2%.
In the case of `O=C(Cc1ccccc1)Oc1cccc2c1C(=O)c1cccc(OC(=O)Cc3ccccc3)c1C2=O` [IIIm, 1,5-Bis(phenylacetyloxy)-anthraquinone], the melting point lay within 202 to 203 °C. In addition, in data set [1], the activity at 2.1 µM stood at 129 ± 4.5%, the activity at 21 µM is 125 ± 4.3% and the activity at 210 µM came to 100 ± 17.3%. Moreover, in data set [2], the viability at 48 h, 2.1 µM is 91 ± 4.2%; the viability at 48 h, 21 µM is 53 ± 2.3%; the viability at 48 h, 210 µM amounted to 30 ± 1.6%. In data set [3], the activity at 2.1 µM was determined as 98 ± 0.3%, the activity at 21 µM amounted to 101 ± 6.8% and the activity at 210 µM was determined as 142 ± 14%. Also, the IC50 with rat glioma C6 cells was determined as 39.1 ± 6.2 µM. Further, the IC50 in the data set on human hepatoma G2 cells is 9 ± 1.5 µM. In data set [4], the viability at 48 h, 2.1 µM was found to be 106 ± 9%; the viability at 48 h, 21 µM was 97 ± 8.2%; the viability at 48 h, 210 µM was found to be 64 ± 10.2%. Besides, the “Inhibition of LP(10 mM)” value in data set [5] (10 mM) is on record as −1 ± 0.2%.
Regarding `O=C(CCc1ccccc1)Oc1cccc2c1C(=O)c1cccc(OC(=O)CCc3ccccc3)c1C2=O` [IIIn, 1,5-Bis(phenylpropionyloxy)-anthraquinone], the melting point was 219 to 220 °C. For the same compound, in data set [1] (2.0 μM), the activity at 2 µM is 126 ± 6.1%. For the same compound, the activity at 20 µM in data set [1] (20 μM) stood at 124 ± 13.4%. For the same compound, the activity at 200 µM in data set [1] (200 μM) is 110 ± 10.5%. Further, in data set [2], the viability at 48 h, 2 µM came to 111 ± 0.8%; the viability at 48 h, 20 µM was found to be 101 ± 4.3%; the viability at 48 h, 200 µM is 54 ± 4.1%. Also, the activity at 2 µM in data set [3] (2.0 μM) was found to be 94 ± 2.5%. Also, the activity at 20 µM in data set [3] (20 μM) was 98 ± 4.7%. Also, in data set [3] (200 μM), the activity at 200 µM was found to be 89 ± 5.2%. Also, the IC50 in the data set on rat glioma C6 cells stood at 40.1 ± 5.5 µM. The compound also showed an IC50 with human hepatoma G2 cells of 0.4 ± 0.1 µM. In data set [4] (setting [6]), the viability at 48 h, 2 µM was 111 ± 7.3%; the viability at 48 h, 20 µM turned out to be 106 ± 6.6%; the viability at 48 h, 200 µM was found to be 76 ± 7.2%. Further, in data set [5] (0.01 mM), the “Inhibition (%)” value was 50 ± 0.8%. Also, the “Inhibition (%)” value in data set [5] (0.1 mM) is on record as 95 ± 2.0%. In addition, the “Inhibition (%)” value in data set [5] (1 mM) is recorded as over 100%. In addition, in data set [5] (10 mM), the “Inhibition (%)” value is reported as over 100% and the “Inhibition of LP(10 mM)” value is recorded as over 100%.
Consider `CCSc1cccc2c1C(=O)c1cccc(SCC)c1C2=O` [IIa, 1,5-Bis(ethylthio)-anthraquinone], for which the melting point is 235 to 236 °C. Moreover, in data set [1] (3.0 μM), the activity at 3 µM is 109 ± 22.4%. The activity at 30 µM in data set [1] (30 μM) was 110 ± 14.3%. In data set [1] (300 μM), the activity at 300 µM is 104 ± 20.6%. Also, in data set [2], the viability at 48 h, 3 µM worked out at 111 ± 2.8%; the viability at 48 h, 30 µM was 44 ± 7.3%; the viability at 48 h, 300 µM amounted to 25 ± 2.3%. The activity at 3 µM in data set [3] (3.0 μM) came out at 134 ± 14.4%. For the same compound, the activity at 30 µM in data set [3] (30 μM) came out at 111 ± 7.7%. Also, in data set [3] (300 μM), the activity at 300 µM is 99 ± 14.3%. Further, half-maximal inhibition in the data set with rat glioma C6 cells (IC50) was put at 0.02 ± 0.01 µM. The IC50 in the data set on human hepatoma G2 cells is 12.2 ± 1.1 µM. In addition, in data set [4], the viability at 48 h, 3 µM turned out to be 112 ± 9.2%; the viability at 48 h, 30 µM stood at 98 ± 12.3%; the viability at 48 h, 300 µM was 34 ± 18.1%. In data set [5] (10 mM, relative percentage of inhibition (Table 1)), the “LP (%) (10 mM)” value was 83 ± 2.2%.
